{"source": "paper PMC11364104", "about": "“Discovery of SARS-CoV-2 papain-like protease (PL^pro) inhibitors with efficacy in a murine infection model” (Science Advances, 2024)", "key": {"in vitro": {"assay": "in vitro", "settings": "dog, plasma"}, "Dog pharmacokinetics": {"assay": "Dog pharmacokinetics", "format": "in vivo, Beagle dog", "settings": "for Vd: read-out: Vdss", "method": "from Vital River (Beijing, China) and were typically 7-9 weeks of age at the time of dosing.\nDuring the pharmacokinetic studies all animals were housed individually. Access to food and water was provided ad libitum (i.e., subjects were dosed in the fed state). In the instances where oral (po) dose was administered in the fed state, with ad libitum access to food and water. Compounds were administered intravenously (iv) via the tail vein (n = 2) dosed as a solution (1 mg/kg, 3 ml/kg) or via oral gavage as a solution (10 mg/kg, 10 ml/kg). Dosing solutions were prepared immediately before dosing. The composition of each dosing vehicle […]\nSerial blood samples were collected via the jugular vein cannula at predetermined timepoints after dosing. Animals were monitored for pain or distress throughout the study, with at least daily monitoring during normal husbandry prior to study start. At the completion of the study, animals were euthanized by overdose of inhaled carbon dioxide. Blood samples were collected into tubes containing K2EDTA and stored on ice until centrifugation to obtain plasma, which was stored frozen at - 20 °C or lower.\nDog pharmacokinetic studies were done at Pfizer (Groton, CT). All procedures performed on beagle dogs were in accordance with regulations and established guidelines and were reviewed and approved by an Institutional Animal Care and Use Committee through an ethical review process. Male Beagle dogs were purchased from Marshall Bioresources (North Rose, NY); subjects 3 years of age were used in pharmacokinetics studies. For each study (n=2), compounds were dosed iv by cephalic vein as a solution (0.5 mg/kg, 1 mL/kg) or via oral gavage as a suspension (3 mg/kg, 5 mL/kg). In the instances where oral (po) dose was administered in the fed state, dogs were fed a couple hours before dosing. In the instances where the IV dose was administered in the fasted state, dogs were fasted over night and fed 4 hours post dose. Subjects were monitored for pain or distress throughout the study followed by at least daily monitoring while off study. The iv dosing vehicle was optimized such that the compounds were in solution and stable for at least 24 h. Serial blood samples were collected via the jugular vein at predefined time points post-dose. Blood samples were collected into K3EDTA treated collection tubes and were stored on wet ice prior to being centrifuged to obtain plasma, which was stored frozen at - 20 °C or lower.\nMonkey pharmacokinetic studies were conducted at Pfizer (Groton, CT). All procedures performed on Cynomolgus monkeys were in accordance with regulations and established guidelines and were reviewed and approved by an Institutional Animal Care and Use Committee through an ethical review process. Male Cynomolgus monkeys were purchased from Envigo Global Services (Indianapolis, IN); subjects 5-8 years of age were used in pharmacokinetic studies. For each study (n=2), compounds were dosed iv by the cephalic vein (typically 1 mg/kg, 2 ml/kg). Subjects were monitored for pain or distress throughout the study followed by at least daily monitoring while off study. The iv dosing vehicle was optimized such that the compounds were in solution and stable for at least 24 h.\nSerial blood samples were collected via the femoral vein at predefined time points post-dose. Blood samples were collected into K3EDTA treated collection tubes and were stored on wet ice prior to being centrifuged to obtain plasma, which was stored frozen at -20 °C or […]\nLC-MS/MS Analysis of Plasma Samples\nPlasma samples were processed using protein precipitation with 50:50 acetonitrile: methanol containing terfenadine (5 ng/ml) as an internal standard followed by quantitation against a standard curve (0.1-1000 ng/ml) prepared in blank plasma. Quantitation of analyte in plasma samples was done using LC-MS/MS. Standard and quality control samples, prepared in blank plasma were extracted in the same manner as the in-life samples. Briefly, a Waters […]"}, "L-Type Ca (Diltiazem)": {"test_system": "L-Type Ca (Diltiazem)", "assay": "CEREP ion channel-binding", "settings": "30 µM"}, "VEGFR2 Kinase": {"target": "T1, VEGFR2 Kinase (Homo sapiens, UniProt P35968)", "T1 construct": "purchased Eurofins Cerep", "T1 sequence (P35968 20-1356)": "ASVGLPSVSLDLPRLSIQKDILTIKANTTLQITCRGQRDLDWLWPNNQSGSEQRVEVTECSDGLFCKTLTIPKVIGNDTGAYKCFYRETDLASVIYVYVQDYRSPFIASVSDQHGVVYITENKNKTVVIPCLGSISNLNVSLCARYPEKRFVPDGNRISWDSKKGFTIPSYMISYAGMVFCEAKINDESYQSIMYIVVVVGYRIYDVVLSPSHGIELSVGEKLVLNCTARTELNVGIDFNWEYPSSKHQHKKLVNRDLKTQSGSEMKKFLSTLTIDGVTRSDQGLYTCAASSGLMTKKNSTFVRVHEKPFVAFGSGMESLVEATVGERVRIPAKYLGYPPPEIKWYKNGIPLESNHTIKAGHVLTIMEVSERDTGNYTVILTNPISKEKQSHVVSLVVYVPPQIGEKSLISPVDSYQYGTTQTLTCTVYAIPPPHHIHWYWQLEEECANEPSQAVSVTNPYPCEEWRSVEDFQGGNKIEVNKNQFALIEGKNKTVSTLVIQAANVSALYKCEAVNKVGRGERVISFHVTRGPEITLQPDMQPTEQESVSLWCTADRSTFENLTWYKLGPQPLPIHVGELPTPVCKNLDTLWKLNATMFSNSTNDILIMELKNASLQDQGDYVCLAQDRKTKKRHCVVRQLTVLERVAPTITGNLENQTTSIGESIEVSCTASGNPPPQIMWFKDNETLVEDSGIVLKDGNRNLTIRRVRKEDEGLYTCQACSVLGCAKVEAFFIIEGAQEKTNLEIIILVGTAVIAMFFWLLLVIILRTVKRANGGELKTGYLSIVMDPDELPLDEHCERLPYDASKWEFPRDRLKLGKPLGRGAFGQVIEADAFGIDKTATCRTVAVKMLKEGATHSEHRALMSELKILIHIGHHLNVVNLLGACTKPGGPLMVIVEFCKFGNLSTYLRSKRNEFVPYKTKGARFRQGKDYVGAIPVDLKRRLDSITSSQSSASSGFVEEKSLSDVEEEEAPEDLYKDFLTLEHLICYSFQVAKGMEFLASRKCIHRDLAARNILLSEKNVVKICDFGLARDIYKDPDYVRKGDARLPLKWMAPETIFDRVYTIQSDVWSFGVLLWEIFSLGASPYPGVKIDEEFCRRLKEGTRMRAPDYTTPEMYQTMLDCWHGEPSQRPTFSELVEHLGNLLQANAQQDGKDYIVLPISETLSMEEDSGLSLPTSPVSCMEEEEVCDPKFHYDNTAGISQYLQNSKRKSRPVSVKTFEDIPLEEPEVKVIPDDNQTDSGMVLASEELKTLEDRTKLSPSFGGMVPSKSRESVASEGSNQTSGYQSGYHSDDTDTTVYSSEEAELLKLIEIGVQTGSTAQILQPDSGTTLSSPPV", "assay": "CEREP kinase inhibition", "format": "biochemical"}, "CYP2C8": {"target": "CYP2C8 (Homo sapiens, UniProt P10632)", "sequence (P10632 whole entry)": "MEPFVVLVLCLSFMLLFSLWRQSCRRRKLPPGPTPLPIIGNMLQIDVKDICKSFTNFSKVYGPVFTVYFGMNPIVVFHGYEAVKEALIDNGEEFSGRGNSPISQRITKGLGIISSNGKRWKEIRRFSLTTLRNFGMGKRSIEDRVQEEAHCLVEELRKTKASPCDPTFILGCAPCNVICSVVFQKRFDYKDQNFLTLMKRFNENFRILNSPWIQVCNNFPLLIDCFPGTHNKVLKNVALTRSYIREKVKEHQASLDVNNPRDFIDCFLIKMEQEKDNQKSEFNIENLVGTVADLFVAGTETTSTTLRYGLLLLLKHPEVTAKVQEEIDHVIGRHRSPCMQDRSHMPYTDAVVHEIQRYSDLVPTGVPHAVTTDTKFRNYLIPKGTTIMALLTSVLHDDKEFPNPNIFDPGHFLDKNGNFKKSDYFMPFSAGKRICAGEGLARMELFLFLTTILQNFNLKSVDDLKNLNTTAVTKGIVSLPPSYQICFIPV", "assay": "biochemical"}, "CYP1A2": {"target": "CYP1A2 (Homo sapiens, UniProt P05177)", "sequence (P05177 whole entry)": "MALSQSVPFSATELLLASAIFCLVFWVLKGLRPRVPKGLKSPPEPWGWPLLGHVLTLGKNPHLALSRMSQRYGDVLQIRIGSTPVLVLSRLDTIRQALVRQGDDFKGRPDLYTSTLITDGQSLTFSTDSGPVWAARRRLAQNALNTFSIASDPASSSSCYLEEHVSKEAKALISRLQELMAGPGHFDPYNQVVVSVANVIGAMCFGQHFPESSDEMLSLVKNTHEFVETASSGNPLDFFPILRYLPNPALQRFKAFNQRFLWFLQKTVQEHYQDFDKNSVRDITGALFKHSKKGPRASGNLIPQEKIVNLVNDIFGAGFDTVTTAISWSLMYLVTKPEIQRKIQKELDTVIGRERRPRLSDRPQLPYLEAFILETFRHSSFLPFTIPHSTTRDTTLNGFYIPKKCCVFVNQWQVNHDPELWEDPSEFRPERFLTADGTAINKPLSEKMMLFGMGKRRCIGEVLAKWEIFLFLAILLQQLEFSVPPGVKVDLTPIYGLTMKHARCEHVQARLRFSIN", "assay": "biochemical"}, "Cyclooxygenase 2": {"target": "T2, Cyclooxygenase 2 (Homo sapiens, UniProt P35354)", "T2 construct": "purchased Eurofins Cerep", "T2 sequence (P35354 18-604)": "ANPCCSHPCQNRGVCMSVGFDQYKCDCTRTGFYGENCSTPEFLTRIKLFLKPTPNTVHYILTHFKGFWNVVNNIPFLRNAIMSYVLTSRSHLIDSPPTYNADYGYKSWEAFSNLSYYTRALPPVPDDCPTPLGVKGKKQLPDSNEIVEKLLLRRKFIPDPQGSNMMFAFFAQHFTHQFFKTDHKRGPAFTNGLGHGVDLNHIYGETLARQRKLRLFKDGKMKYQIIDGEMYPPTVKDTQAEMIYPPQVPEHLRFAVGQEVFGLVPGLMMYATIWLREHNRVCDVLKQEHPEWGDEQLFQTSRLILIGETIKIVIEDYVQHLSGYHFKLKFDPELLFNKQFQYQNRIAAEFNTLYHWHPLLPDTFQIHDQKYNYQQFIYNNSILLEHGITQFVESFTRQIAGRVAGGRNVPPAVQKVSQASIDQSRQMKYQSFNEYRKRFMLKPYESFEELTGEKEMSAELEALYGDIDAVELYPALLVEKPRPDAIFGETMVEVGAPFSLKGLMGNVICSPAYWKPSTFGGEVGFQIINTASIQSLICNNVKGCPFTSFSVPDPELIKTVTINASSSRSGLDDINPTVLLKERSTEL", "assay": "CEREP enzyme inhibition", "format": "biochemical"}, "GABA Transporter": {"test_system": "GABA Transporter", "assay": "CEREP transporters-binding", "settings": "30 µM"}, "Dopamine Transporter": {"target": "T3, Dopamine Transporter (Homo sapiens, UniProt Q01959)", "T3 construct": "purchased Eurofins Cerep", "T3 sequence (Q01959 whole entry)": "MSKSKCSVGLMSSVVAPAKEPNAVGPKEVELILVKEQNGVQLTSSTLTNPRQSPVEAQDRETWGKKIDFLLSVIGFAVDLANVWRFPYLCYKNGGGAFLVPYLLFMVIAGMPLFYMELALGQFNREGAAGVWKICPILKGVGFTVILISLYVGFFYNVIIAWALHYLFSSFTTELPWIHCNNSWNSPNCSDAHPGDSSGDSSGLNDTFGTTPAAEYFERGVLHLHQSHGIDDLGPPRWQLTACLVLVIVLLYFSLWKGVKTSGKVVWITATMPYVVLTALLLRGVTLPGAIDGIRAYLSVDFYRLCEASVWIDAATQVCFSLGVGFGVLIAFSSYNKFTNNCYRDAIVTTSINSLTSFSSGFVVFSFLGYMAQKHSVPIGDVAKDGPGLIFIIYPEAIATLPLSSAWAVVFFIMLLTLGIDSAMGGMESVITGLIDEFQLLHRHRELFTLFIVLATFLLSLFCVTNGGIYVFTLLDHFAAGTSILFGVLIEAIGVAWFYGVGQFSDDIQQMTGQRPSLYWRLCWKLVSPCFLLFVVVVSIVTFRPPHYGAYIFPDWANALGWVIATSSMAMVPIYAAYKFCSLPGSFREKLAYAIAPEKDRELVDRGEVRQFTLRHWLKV", "assay": "CEREP transporters-binding"}, "[1]": {"settings": "plasma, Male Beagle Dog, 0.5 mg/kg iv, solution, mean n=2"}, "[2]": {"settings": "plasma, Male Beagle Dog, 3.0 mg/kg po, suspension, mean n=2"}}, "note": "Like-named read-outs stand apart in the source and are kept apart here."}
{"compound": "Cc1ccc(N2CCN(C)CC2)cc1C(=O)NC1(c2cc(-c3cnn(C)c3)nc3ccccc23)CC1", "note": "[Compound 4]", "values": [{"measurement": "fraction unbound", "setting": "in vitro", "result": 0.176}, {"measurement": "Oral F", "setting": "Dog pharmacokinetics; Male Beagle Dog, 3.0 mg/kg po, suspension, mean n=2", "result": 41.0, "unit": "%"}, {"measurement": "Vd", "setting": "Dog pharmacokinetics; male, Beagle, plasma, 0.5 mg/kg, dog (d), intravenous", "result": 1.59, "unit": "L/kg"}, {"measurement": "bioavailability", "setting": "Dog pharmacokinetics; male, Beagle, plasma, po, 3 mg/kg, dog (d), read-out: Oral F (%)", "result": 41, "unit": "%"}, {"measurement": "AUC(0-inf)", "setting": "Dog pharmacokinetics; [1]", "result": 640, "unit": "ng·h/mL"}, {"measurement": "half-life", "setting": "Dog pharmacokinetics; [1]", "result": 2.06, "unit": "h"}, {"measurement": "clearance", "setting": "Dog pharmacokinetics; plasma, Male Beagle Dog, 0.5 mg/kg iv, solution, mean n=2, read-out: CLp", "result": 13.4, "unit": "mL/min/kg"}, {"measurement": "Vd", "setting": "Dog pharmacokinetics; [1]", "result": 1.59, "unit": "L/kg"}, {"measurement": "AUC(0-inf)", "setting": "Dog pharmacokinetics; [2]", "result": 1580, "unit": "ng·h/mL"}, {"measurement": "Cmax", "setting": "Dog pharmacokinetics; [2]", "result": 354, "unit": "ng/mL"}, {"measurement": "Tmax", "setting": "Dog pharmacokinetics; [2]", "result": 1, "unit": "h"}, {"measurement": "half-life", "setting": "Dog pharmacokinetics; [2]", "result": 2.52, "unit": "h"}, {"measurement": "% inhibition", "setting": "L-Type Ca (Diltiazem)", "result": 10, "unit": "%"}, {"measurement": "inhibition at 30 µM", "setting": "VEGFR2 Kinase", "result": 11, "unit": "%"}, {"measurement": "IC50", "setting": "CYP2C8", "result": 76.1, "unit": "µM"}, {"measurement": "IC50", "setting": "CYP1A2", "result": 72.2, "unit": "µM"}, {"measurement": "inhibition at 30 µM", "setting": "Cyclooxygenase 2", "result": 36, "unit": "%"}, {"measurement": "% inhibition", "setting": "GABA Transporter", "result": -4, "unit": "%"}, {"measurement": "inhibition at 30 µM", "setting": "Dopamine Transporter", "result": 8, "unit": "%"}]}
